Test results published in publication PMC4078515 (Pharmaceuticals, 2014).
Where “and” joins values, the source holds several entries; their conditions need not be identical. Equal values may be shown once. Read-outs that look alike come from different tables or passages of the source.

Columns and labels:
in vivo [1] = details: guinea pig; for Tmax / AUC(0-t) / half-life / Cmax: male, Hartley albino
Method: (§1) The column used for chromatographic separation was a Waters Xbridge C18, 2.1 × 50 mm 2.5 µm at 30 °C. Mobile phase A: 10:40:50, 1.0% ammonium hydroxide solution in water, adjusted to pH 10.5 with formic acid: water: ACN. Mobile phase B: 10:90, 1.0% ammonium hydroxide solution in water, adjusted to pH 10.5 with formic acid: ACN. Flow rate: 250 µL/min, injection volume: 10 µL, run time: 10 min. Gradient, 100% A hold for 1 min, 0% B to 100% B over 4 min, hold 100% B for 4.5 min, 0% B at 9.51 min and equilibrate for 0.5 min.
(§2) The LTQ-XL ion trap mass spectrometer was coupled to the Accela LC system via an electrospray ionization (ESI) probe. The capillary temperature was maintained at 350 °C, sheath gas flow rate 50 arbitrary units, auxiliary gas flow rate 5 arbitrary units, sweep gas flow rate 0 arbitrary units, source voltage 3.20 kV, source current 100 µA, capillary voltage 43.00 V and tube lens 100 V. Compounds were detected in positive ion mode using selected ion monitoring (SIM). Hydroxybupropion was detected at (M+H)^+ = 256.1099, RT = 1.0 min, Rac-erythro-hydrobupropion (M+H)^+ = 242.1306, RT = 2.3 min, Rac-threo-hydrobupropion (M+H)^+ = 242.1306, RT 2.8 min, bupropion (M+H)^+ = 240.1150, RT = 2.0 min, N-methylbupropion (M+H)^+ = 254.1306, RT = 4.9 min, Rac-N-methyl-erythro-hydrobupropion (M+H)^+ = 256.1463, RT = 4.1 min and Rac-N-methyl-threo-hydrobupropion (M+H)^+ = 256.1463, RT = 4.6 min. The optimum detector conditions were found by tuning the instrument to be most sensitive for bupropion’s most abundant ion at 240 (m/z).
After acclimatization, male Hartley albino guinea-pigs, weighing 280–320 g were deprived of food for 16 h with free access to water (food withdrawal at 04:00 PM the day before). On the day of the experiment five guinea pigs per group were weighed then injected through the abdominal wall or fed by oral gavage with bupropion given at 40 mg/kg intraperitoneum. A second group of five guinea pigs were weighed then injected through the abdominal wall or fed by oral gavage with N-methyl bupropion given at 42 mg/Kg intraperitoneum.
Guinea pigs were placed under isoflurane anesthesia and approximately 100 µL of blood was collected using hematocrit capillaries or by cardiac puncture (terminal) into dry heparin/Li containing tubes before administration and then at five time points post-administration (0, 20, 40, 60, 120 and 180 min) for intraperitoneal study and seven time-points post administration (0, 20, 40, 60, 120, 180, 240 and 360 min) for oral study. After blood was collected, the tubes were inverted several times and placed on ice. The samples were centrifuged within 30 min maximum after sampling at 2205 g at 4 °C for 10 min. Plasma was transferred to polypropylene tubes and frozen with minimal delay at approximately −70 °C.
(§3) Guinea pig plasma was defrosted and centrifuged. Then, plasma (50 µL) was added to a 1.5 mL microcentrifuge tube. ACN (200 µL) was added and the mixture was vortex mixed. The resulting solution was centrifuged at 8000 g for 10 min. Supernatant (100 µL) was added to HCl (100 µL, 0.001 M). The solution was vortex mixed and added to a 100 µL micro-insert for LC-MS analysis.
Pharmacokinetic calculations were determined on Graphpad Prism software. Michaelis-Menten parameters were determined by non-linear regression analysis. The pharmacokinetic data was interpreted using a one-compartment model where the amount of drug present in the body at any given time t [A(t)] is described in Equation (1).
Drug concentration: A(t) = Cp(t)V(1) where Cp(t) and V are the drug concentration in the plasma and the apparent volume of distribution respectively. At least five sample time points were collected including at least one time point before tmax and three time points during the terminal phase for half-life estimation.

in vivo [2] = assay type: in vivo; details: guinea pig; for concentration at 20 min / Kp at 20 min: Hartley, in vivo
Method: Guinea pig plasma was defrosted and centrifuged.
Guinea pig brain was defrosted. […] Supernatant (250 µL) was added to ACN 750 µL.
Brain levels were determined on a separate group.

in vivo [3] = details: Hartley, guinea pig, ip
Method: as §1, §2
An additional group of guinea-pigs were used for brain collection at a single time point (20 min). The day of the experiment four guinea pigs per group were weighed then injected through the abdominal wall with bupropion given at 40 mg/kg IP and N-methylbupropion given at 42 mg/Kg IP. At time 20 min post-injection, the animals were decapitated and the brain extracted and rinsed in cold physiological saline. The whole brain was fast frozen on dry ice and placed into pre-labeled vials and stored at approximately −70 °C (deep frozen).>
as §3
Guinea pig brain was defrosted. The whole brain was weighed into a beaker and 0.01 M HCl (20 mL) was added. The mixture was homogenized for 3 min on level 6 and allowed to settle for 10 min. An aliquot of the resulting suspension was centrifuged at 10,000 g for 10 min. Supernatant (250 µL) was added to ACN 750 µL. The mixture was centrifuged at 10,000 g for 10 min. 200 µL of the supernatant was added to 800 µL water. The clear solution was vortex mixed and analyzed by LC-MS.

[4] = system: dopamine active transport (DAT); parameters: method as in preceding paper (paper 1 of this series); details: in vitro; ref preceding paper (paper 1 of this series); cited from earlier work
[5] = system: norepinephrine transport (NET); parameters: method as in preceding paper (paper 1 of this series); details: in vitro; ref preceding paper (paper 1 of this series); cited from earlier work
[6] = N-demethylation of N-methylbupropion to bupropion, substrate saturation study; assay type: in vitro ADME; details: 0.1 mg/mL guinea pig S9 liver fraction, 50–1000 μM, 20 min, 37 °C, n = 3
Method: Guinea pig S9 liver fraction, NADPH regenerating solutions A and B were thawed rapidly to 37 °C, then kept on wet ice until ready for use. A number of different concentration substrate solutions were prepared were the maximum concentration of DMSO was 1%, and the concentration of guinea pig S9 liver fraction, NADP regenerating system solution B and phosphate buffer was fixed. After incubation for 5 min, NADP regenerating system solution A was added and the metabolism was initiated. Final volume was 100 μL. The tube was inverted twice and vortex mixed. The final concentrations in this solution was 50–1000 μM prodrug, 0.1 mg/mL guinea-pig S9 liver fraction, 1.3 mM NADP^+, 0.4 U/mL glucose-6-phosphate dehydrogenase and 1.0% DMSO. This solution was incubated for 20 min at 37 °C. The reaction was quenched by addition of 100 μL of ACN. […] The supernatant was analysed by LC-MS analysis.
Pharmacokinetic calculations were determined on Graphpad Prism software.
In selecting a guinea pig animal model for an in vivo study, it was prudent to first verify if an in vitro guinea pig model would carry out the same metabolic transformations. […] N-methylbupropion and bupropion concentrations were determined by LC-MS. […] Other unknown minor metabolites of N-methylbupropion were also detected but were not quantified at this stage. These were determined during the in vivo stage, discussed below.

[7] = pH dependence, cited from earlier work
[8] = ip, 40 mg/kg, Cmax, plasma analyte after dosing bupropion 40 mg/Kg IP
[9] = ip, 40 mg/kg, tmax, plasma analyte after dosing bupropion 40 mg/Kg IP
[10] = ip, 42 mg/kg, Mean Cmax ± SD, plasma analyte after N-Methylbupropion dosed at 42 mg/Kg IP, n = 5
[11] = ip, 42 mg/kg, tmax, plasma analyte after N-Methylbupropion dosed at 42 mg/Kg IP, n = 5
[12] = 20 min post dose of 40 mg/Kg bupropion via oral gavage, read-out: Brain levels
[13] = 20 min post dose of 40 mg/Kg bupropion via oral gavage, read-out: Brain/plasma ratio
[14] = 20 min post dose of 40 mg/Kg bupropion via oral gavage, read-out: Plasma levels
[15] = 20 min post dose of 42 mg/Kg N-methyl bupropion via oral gavage, read-out: Brain levels
[16] = 20 min post dose of 42 mg/Kg N-methyl bupropion via oral gavage, read-out: Brain/plasma ratio
[17] = 20 min post dose of 42 mg/Kg N-methyl bupropion via oral gavage, read-out: Plasma levels

Compound | AUC(0-t) (in vivo [1]; ip, 40 mg/kg) | half-life (in vivo [1]; ip, 40 mg/kg) | Cmax (in vivo [1]; [8]) | Cmax (in vivo [1]; ip, 40 mg/kg, Mean Cmax ± SD) | Tmax (in vivo [1]; [9]) | Cmax (in vivo [1]; [10]) | Tmax (in vivo [1]; [11]) | concentration at 20 min (in vivo [2]; [12]) | Kp at 20 min (in vivo [2]; [13]) | concentration at 20 min (in vivo [2]; [14]) | concentration at 20 min (in vivo [2]; [15]) | Kp at 20 min (in vivo [2]; [16]) | concentration at 20 min (in vivo [2]; [17]) | Kp at 20 min (in vivo [3]; 40 mg/kg) | Kp at 20 min (in vivo [3]; 42 mg/kg) | further results
C[C@@H](NC(C)(C)C)[C@H](O)c1cccc(Cl)c1 [THB, threo-hydrobupropion] | 2860 ng·h/mL | 198 min | 1230 ± 307 ng/mL | 1220 ± 310 ng/mL | 20 min | 970 ± 280 ng/mL | 60 min | 970 ng/g | 1.17 | 830 ng/mL | 620 ng/g | 1.15 | 540 ng/mL | 6.54 | 12.1 | Tmax (in vivo [1]; in vivo, 42 mg/Kg): 60 min; Tmax (in vivo [1]; ip, 40 mg/kg, tmax): 19.8 min
C[C@H]([C@H](O)c1cccc(Cl)c1)N(C)C(C)(C)C (racemic) [N-Me THB, Rac-N-methyl-threo-hydrobupropion] | – | – | – | – | – | 80 ± 20 ng/mL | 19.8 min | – | – | – | 570 ng/g | 14.2 | 40 ng/mL | – | 12.6 | –
C[C@H]1NC(C)(C)CO[C@]1(O)c1cccc(Cl)c1 (relative stereo) [BupOH, hydroxybupropion] | 2330 ng·h/mL | 408 min | – | 950 ± 170 ng/mL | – | 720 ± 140 ng/mL | 60 min | – | – | – | – | – | – | 6.3 | 7.61 | Tmax (in vivo [1]; in vivo): 60 min; Tmax (in vivo [1]; ip, 40 mg/kg): 39.6 min; Kp at 20 min (in vivo [2]; po, 40 mg/kg): 0.5; concentration at 20 min (in vivo [2]; po, 40 mg/kg): 370 ng/g and 730 ng/mL; Kp at 20 min (in vivo [2]; po, 42 mg/kg): 0.4; concentration at 20 min (in vivo [2]; po, 42 mg/kg): 220 ng/g and 550 ng/mL
CC(C(=O)c1cccc(Cl)c1)N(C)C(C)(C)C (stereo not drawn) [N-Me Bup, N-methylbupropion] | – | – | – | – | – | 180 ± 80 ng/mL | 19.8 min | – | – | – | – | – | 20 ng/mL | – | 20.2 | t½ (in vivo [1]; plasma analyte after N-Methylbupropion dosed at 42 mg/Kg via oral gavage, n = 5): <LOQ; activity at DAT compared to bupropion [4]: lower activity; activity at NET compared to bupropion [5]: lower activity; Vmax [6]: 419.2 ± 13.65 pmol/min/mg S9; Brain/plasma ratio (in vivo [2]; 20 min post dose of 42 mg/Kg N-methyl bupropion via oral gavage): <LOQ; Brain levels (in vivo [2]; 20 min post dose of 42 mg/Kg N-methyl bupropion via oral gavage, listed as N-MeBup, 42 mg/kg): <LOQ; Brain levels (in vivo [2]; 20 min post dose of 42 mg/Kg N-methyl bupropion via oral gavage, listed as N-methylbupropion, 42 mg/kg): below the limit of quantitation
CC(NC(C)(C)C)C(=O)c1cccc(Cl)c1 (stereo not drawn) [Bup, Bupropion] | – | – | 869 ± 190 ng/mL | – | 20 min | 380 ± 90 ng/mL | 19.8 min | 430 ng/g | 4.78 | 90 ng/mL | 460 ng/g | 9.2 | 50 ng/mL | 11.2 | 17.1 | Cmax (in vivo [1]; ip, 40 mg/kg, Mean Cmax ± SD, plasma analyte after Bupropion dosed at 40 mg/Kg IP, n = 5): 870 ± 190 ng/mL; Tmax (in vivo [1]; ip, 40 mg/kg, tmax, plasma analyte after Bupropion dosed at 40 mg/Kg IP, n = 5): 19.8 min; stability of freebase ([7]; aqueous): suffers from hydrolysis and oxidation at pH > 5; sample stability in plasma ([7]; plasma samples, ref 14,15 (supplement)): stable at low pH
